Data as given in patent US11911396B2, “Use of compound in preparation of drug for treating cerebral small vessel disease” (GUANGZHOU CELLPROTEK PHARMACEUTICAL CO., LTD, priority 2017, dated 2024).

Columns and labels:
CD163 = experiment: Immunofluorescence of CD163 in prefrontal cortex brain tissue, acute hypobaric hypoxia model; format: in vivo, cynomolgus monkeys; settings: FIGS. 5A and 5B
Source text: (§1) FIG. 5. […] A. Immunofluorescence imaging of CD163 and Iba-1 in the brain tissue of cynomolgus monkeys. B. Statistics of relative fluorescence intensity of CD163 and Iba-1. C. Correlation analysis of relative fluorescence intensity of CD163 and Iba-1. NN: Normobaric Normoxia group; HH: Hypobaric Hypoxia group; HH+Triol: Hypobaric Hypoxia with Triol administration group; HH+PROG: Hypobaric Hypoxia with progesterone administration group. One-way ANOVA analysis and Dunnutt's t test were used to perform statistical tests, and in the latter each group was compared with the HH group, ***, p<0.001.
(§2) The thickness of paraffin sections was 5 μm. For fresh paraffin sections, the sections were dried at 37° C. overnight and then dried at 55° C. for 30 minutes. The sections were quickly placed in xylene for dewaxing. After fully dewaxing with xylene for 10 min for 3 times, absolute ethanol-95% ethanol-90% ethanol-80% ethanol-70% ethanol-50% ethanol-ddH2O were successively used for gradient rehydration. After rehydration, the sections were placed in EDTA antigen repair solution for microwave high temperature repair. After the repair was completed, it was allowed naturally cool down to room temperature. […] NIS-Elements Analysis software was used to analyze the fluorescence intensity of confocal images, which was then normalized with the fluorescence intensity per unit area according to the built-in scale. […]

Iba1 = experiment: Immunofluorescence of Iba1 in prefrontal cortex brain tissue, acute hypobaric hypoxia model; format: in vivo, cynomolgus monkeys; settings: FIG. 5
Source text: as §1, §2

free hemoglobin = experiment: Immunofluorescence of extravascular free hemoglobin in prefrontal cortex brain tissue, acute hypobaric hypoxia model; format: in vivo, cynomolgus monkeys (Macaca fascicularis); settings: 7500 meters for 48 hours, compared with acute hypobaric hypoxia group, FIG. 1
Source text: FIG. 1. Acute hypobaric hypoxia caused an increase in extravascular distribution of free hemoglobin in the brain tissue of the prefrontal cortex of cynomolgus monkeys (Macaca fascicularis). […] B. MFI (Mean Fluorescence Intensity) was quantified using Nikon NIS-Element software. The statistics of the relative fluorescence intensity of free hemoglobin distributed extravascularly in the brain tissue of cynomolgus monkeys was shown, and one-way ANOVA analysis and Dunnutt's t test were used to perform statistical tests, **, p<0.01, ns, no statistical difference, n=4. NN: Normobaric Normoxia group; HH: Hypobaric Hypoxia group; HH+Triol: Hypobaric Hypoxia with Triol administration group; HH+PROG: Hypobaric Hypoxia with control drug administration group. PROG represents the control drug progesterone.
The thickness of paraffin sections was 5 μm. For fresh paraffin sections, the sections were dried at 37° C. overnight and then dried at 55° C. for 30 minutes. The sections were quickly placed in xylene for dewaxing. […] NIS-Elements Analysis software was used to analyze the fluorescence intensity of confocal images, which was then normalized with the fluorescence intensity per unit area according to the built-in scale. […]

C[C@@]12CCCC1C1C[C@@H](O)[C@@]3(O)C[C@@H](O)CC[C@]3(C)C1CC2 (stereo partly drawn) [Triol, 5α-androst-3β,5,6β-triol]
down-regulation of CD163 expression caused by acute hypobaric hypoxia (CD163): significantly restored
Iba1 expression (Iba1): down-regulation
distribution of extravascular free hemoglobin (free hemoglobin): significantly reduced
